Values joined by “and” are separate entries in the source; they are usually repeats but may differ in a detail not shown here. Equal entries are not always repeated.
Columns and labels:
[1] = system: HCV ET replicon cells (Huh-7, HCV Con1-ET construct); assay: Replicon assay: inhibition of Hepatitis C virus replication by supernatants from compound-stimulated human PBMC; format: cell-based; settings: Huh-7 HCV ET replicon, luciferase, 48 h incubation, read-out: mean EC50 (compound concentration giving a PBMC supernatant inhibiting HCV replication by 50%)
Protocol: Inhibition of Hepatitis C virus Replication by Supernatants from Compound-Stimulated Human Peripheral Blood Mononuclear Cells (PBMC).
An assay was established to measure the antiviral activity in supernatants from human PBMC which had been previously stimulated with compounds.
Activity assays were conducted using an Huh-7 cell line stably-transfected with a dicistronic replicon, comprising the HCV Con1-ET construct (Pietschmann et al., 2002 J. Virol. 2002 76(8):4008-21) and the firefly (Photinus pyralis) luciferase gene, obtained from ReBLikon GmbH, Germany.
1.5×10^4 HCV ET replicon cells per well were grown in 96-well plates overnight in 90 microlitres of cell culture medium. Ten microlitres of three-fold dilutions of PBMC supernatants generated above (stimulation of human donor blood-derived peripheral blood mononuclear cells (PBMC) with test compounds) were added to the ET cells. Following a 48-hour incubation, assay medium was removed and luciferase activity measured in the cell monolayers using the Steadylite assay system (Perkin Elmer). EC50 values were calculated as the compound concentration giving a PBMC supernatant which was able to inhibit HCV replication by 50% compared with a supernatant from unstimulated PBMC cultures.

[2] = system: Ovalbumin (OVA)-induced acute pulmonary inflammation; assay: Ovalbumin-induced acute pulmonary inflammation model; format: in vivo, BALB/c mice; settings: BAL on day 28
Protocol: Inhibition of Ovalbumin (OVA)—Induced Acute Pulmonary Inflammation. Female BALB/c mice (18-20 g) were inoculated on days 0 and 14, with 10 μg OVA adsorbed to 2 mg aluminium hydroxide in a volume of 0.2 ml phosphate buffered saline (PBS) via the intra-peritoneal route. On days 24-26, mice were intra-nasally challenged with 50 μl of either saline or OVA (formulated as above) under general anaesthesia. […] Doses were given once daily on days 23 to 27 with the initial dose 24 h prior to the first challenge. On the days of challenge, animals were dosed with compound or vehicle one hour after challenge. Animals therefore received a total of 5 doses. Dexamethasone was used as a positive control dosed at 10 mg/kg orally in the same vehicle once daily on days 24 to 27 with the initial dose 1 h prior to the first challenge. Animals therefore received a total of 4 doses. Animals were killed on day 28 (48 hours post last saline or OVA challenge) and bronchoalveolar lavage (BAL) was performed with 5×1 ml (0.1% bovine serum albumin, 10 mM EDTA in PBS) and pooled. Numbers of lymphocytes, macrophages, eosinophils and neutrophils in BAL were identified by light scatter flow cytometry and quantified.

[3] = 5 mg/kg orally once daily days 23 to 27, compared with saline treated controls
[4] = positive control, 10 mg/kg orally once daily days 24 to 27, 10 mg/kg

Compound: CCCCOc1nc(N)c2[nH]c(=O)n(CC3CCOCC3)c2n1 [Example 1, 6-Amino-2-butoxy-9-(tetrahydro-2H-pyran-4-ylmethyl)-7,9-dihydro-8H-purin-8-one]
- EC50 [1]: 43 nM

Compound: CCCCNc1nc(N)c2[nH]c(=O)n(CC3CCOCC3)c2n1 [Example 4, 6-Amino-2-butylamino-9-(tetrahydro-2H-pyran-4-ylmethyl)-7,9-dihydro-8H-purin-8-one]
- EC50 [1]: 1050 nM
- reduction of eosinophil counts in BAL [2, 3]: 72%
- reduction of lymphocyte counts in BAL [2, 3]: 66%
- reduction of neutrophil counts in BAL [2, 3]: 50%

Compound: CCCCOc1nc(N)c2[nH]c(=O)n(CC3CCCOC3)c2n1 (centres unmarked) [Example 12, 6-Amino-2-butoxy-9-(tetrahydro-2H-pyran-3-ylmethyl)-7,9-dihydro-8H-purin-8-one]
- reduction of eosinophil counts in BAL [2, 3]: 67%
- reduction of lymphocyte counts in BAL [2, 3]: 68%
- reduction of neutrophil counts in BAL [2, 3]: 58%

Compound: C[C@@H]1C[C@H]2[C@@H]3CCC4=CC(=O)C=C[C@]4(C)[C@@]3(F)[C@@H](O)C[C@]2(C)[C@@]1(O)C(=O)CO [dexamethasone, Dexamethasone, reference compound]
- reduction of eosinophil counts in BAL [2, 4]: 92% and 86%
- reduction of lymphocyte counts in BAL [2, 4]: 87% and 86%
- reduction of neutrophil counts in BAL [2, 4]: 68% and 65%

— patent US20100120799A1, “PURINE DERIVATIVES AS IMMUNOMODULATORS” (SMITHKLINE BEECHAM CORPORATION, priority 2007, published 2010)
